Measurements reported in US6291463A, “1-(Benzothiazol-2-yl)-4-(1-phenylmethyl) piperazines: dopamine receptor subtype specific ligands” (Neurogen Corporation, priority 1999, dated 2001).
Where a name gives a salt, the structure may show the parent alone.

Columns and labels:
D4 receptors = experiment: D4 receptor binding (displacement of 3H-YM 09151-2); set-up: species or system African Green monkey; conditions: COS cells with recombinant D4 receptors; 0.5 nM 3H-YM 09151-2; Table 2
Method: (§1) Assay for D2 and D4 Receptor Binding Activity
(§2) Pellets of COS cells containing recombinantly produced D2 or D4 receptors from African Green monkey were used for the assays. The sample is homogenized in 100 volumes (w/vol) of 0.05 M Tris HCl buffer at 4° C. and pH 7.4. The sample is then centrifuged at 30,000×g and resuspended and rehomogenized. The sample is then centrifuged as described and the final tissue sample is frozen until use. The tissue is resuspended 1:20 (wt/vol) in 0.05 M Tris HCl buffer containing 100 mM NaCl.
(§3) Incubations are carried out at […] and contain 0.4 ml of tissue sample, 0.5 nM ^3 H-YM 09151-2 (Nemonapride, cis-5-Chloro-2-methoxy-4-(methylamino)-N-(2-methyl-2-(phenylmethyl)-3-pyrroli-dinyl)benzamide) and the compound of interest in a total incubation of 1.0 ml. Nonspecific binding is defined as that binding found in the presence of 1 mM spiperone; without further additions, nonspecific binding is less than 20% of total binding.

D2 receptors = D2 receptors (Chlorocebus aethiops, UniProt P52702); experiment: D2 receptor binding (displacement of 3H-YM 09151-2); set-up: species or system African Green monkey; conditions: COS cells with recombinant D2 receptors; 0.5 nM 3H-YM 09151-2; Table 2
Chain of D2 receptors (P52702 whole entry): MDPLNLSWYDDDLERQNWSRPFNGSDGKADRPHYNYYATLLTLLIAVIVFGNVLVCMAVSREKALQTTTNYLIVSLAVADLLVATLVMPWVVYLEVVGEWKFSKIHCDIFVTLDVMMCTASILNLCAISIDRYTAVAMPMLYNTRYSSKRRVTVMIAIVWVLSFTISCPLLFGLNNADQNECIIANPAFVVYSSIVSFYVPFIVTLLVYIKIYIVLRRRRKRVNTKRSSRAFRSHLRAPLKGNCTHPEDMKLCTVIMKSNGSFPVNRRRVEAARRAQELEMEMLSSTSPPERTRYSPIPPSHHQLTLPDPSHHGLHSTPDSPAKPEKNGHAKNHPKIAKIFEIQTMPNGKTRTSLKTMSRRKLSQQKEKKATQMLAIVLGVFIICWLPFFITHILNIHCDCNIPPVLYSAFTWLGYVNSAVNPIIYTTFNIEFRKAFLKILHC
Method: as §1, §2, §3

Row | SMILES | Ki (D4 receptors) | Ki (D2 receptors)
1 | Clc1ccc(CN2CCN(c3nc4ccccc4s3)CC2)cc1 [Compound 1A, 1-(Benzothiazol-2-yl)-4-(1-[4-chlorophenyl]methyl)piperazine] | 14 nM | > 4000 nM
2 | Cc1ccc(CN2CCN(c3nc4ccccc4s3)CC2)cc1 [Compound 2A, 1-(benzothiazol-2-yl)-4-(1-[4-methylphenyl]methyl)piperazine oxalate] | 25 nM | 3510 nM
3 | c1ccc2cc(CN3CCN(c4nc5ccccc5s4)CC3)ccc2c1 [Compound 4A, 1-(benzothiazol-2-yl)-4-(1-[2-naphthyl]methyl)piperazine oxalate] | 76 nM | 3510 nM
